Tests used:
[1] = Solubility and volatility; type: physicochemical
rice [2] = assay: Rice seed surface treatment, pots, test No. 1 (Example 17); type: in vivo, rice cv. RIBE; conditions: 41 days
Method: A set of glass pots was prepared as described in Example 7. Immediately after such preparation the pots were filled with water to a level of 7 cm. above the ground surface. Cv. RIBE rice seeds, which were previously allowed to swell in water, were divided into four groups. Each group was treated, by application with a micro syringe with a quantity of M3432 composition; containing 70% active product, corresponding to the following doses of a.p. per ha.: 0, 2.5, 5, and 10 kg. 15 seeds coated with the compound were placed into each pot and subsequently covered with a thin layer of earth. After 41 days, the following results were obtained.

rice [3] = assay: Hothouse test on rice in flooded boxes, 27 days (Example 9a); type: in vivo, rice cv. RIBE
Description: A test was arranged in a hothouse on a set of boxes having a 1,000 cm^2 internal surface. 18 Kg. of sieved rice field earth were put into each box. After leveling, the earth surfaces of each of a set of six boxes were uniformly sprayed with hydroacetone solutions containing, respectively, 0, 0.5, 0.75, 1, 1.25, and 1.5% of M3432. 20 Cc. of solution was sprayed into each box, corresponding to 0, 10, 15, 20, 25, and 30 kg./ha., respectively. Each box was flooded with a 10 cm. water layer measured from the earth surface. The sowing was carried out immediately afterwards with a pre-germinated (cv) RIBE rice seed, employing a quantity of 40 seeds per box.
During the test, the hothouse temperature ranged from +10°to +28°C. 27 Days after the treatment, all the rice plants were recovered from each box and subjected to biometric controls.

[4] = Acute oral toxicity, mice; conditions: mouse, in vivo

Question: What does the source list for `CCC(C)N(C(=O)SCc1ccccc1)C(C)CC` (centres unmarked) [M3432, S-benzyl-N,N-disec.butylthiocarbamate]?
Answer: Volatility [1]: not volatile; Solubility in organic solvents ([1]; benzene, ether, heptane, methanol, cyclohexanone, acetone, methyl chloride, dichloroethane): soluble; Solubility in water ([1]; water): practically insoluble; Main root (rice [2]; 2.5 kg./ha.): 8.93 cm.; Secondary roots (rice [2]; 2.5 kg./ha.): 3.90 no.; Shoot (rice [2]; 2.5 kg./ha.): 17.16 cm.; Stand (rice [2]; 2.5 kg./ha.): 68.80%; Main root (rice [2]; 5 kg./ha.): 8.48 cm.; Secondary roots (rice [2]; 5 kg./ha.): 4.02 no.; Shoot (rice [2]; 5 kg./ha.): 16.83 cm.; Stand (rice [2]; 5 kg./ha.): 62.20%; Main root (rice [2]; 10 kg./ha.): 10.07 cm.; Secondary roots (rice [2]; 10 kg./ha.): 4.23 no.; Shoot (rice [2]; 10 kg./ha.): 16.92 cm.; Stand (rice [2]; 10 kg./ha.): 62.20%; Main root (rice [3]; 10 kg./ha.): 4.82 cm.; Main root, % of control (rice [3]; 10 kg./ha.): 150 % of control; Secondary roots (rice [3]; 10 kg./ha.): 2.82 No.; Secondary roots, % of control (rice [3]; 10 kg./ha.): 127 % of control; Shoot (rice [3]; 10 kg./ha.): 11.70 cm.; Shoot, % of control (rice [3]; 10 kg./ha.): 198 % of control; Sprouted plants (rice [3]; 10 kg./ha.): 52.5%; Sprouted plants, % of control (rice [3]; 10 kg./ha.): 131 % of control; Main root (rice [3]; 15 kg./ha.): 4.06 cm.; Main root, % of control (rice [3]; 15 kg./ha.): 131 % of control; Secondary roots (rice [3]; 15 kg./ha.): 2.95 No.; Secondary roots, % of control (rice [3]; 15 kg./ha.): 133 % of control; Shoot (rice [3]; 15 kg./ha.): 11.99 cm.; Shoot, % of control (rice [3]; 15 kg./ha.): 203 % of control; Sprouted plants (rice [3]; 15 kg./ha.): 57.5%; Sprouted plants, % of control (rice [3]; 15 kg./ha.): 144 % of control; Main root (rice [3]; 20 kg./ha.): 8.29 cm.; Main root, % of control (rice [3]; 20 kg./ha.): 267 % of control; Secondary roots (rice [3]; 20 kg./ha.): 4.42 No.; Secondary roots, % of control (rice [3]; 20 kg./ha.): 199 % of control; Shoot (rice [3]; 20 kg./ha.): 12.15 cm.; Shoot, % of control (rice [3]; 20 kg./ha.): 205 % of control; Sprouted plants (rice [3]; 20 kg./ha.): 77.5%; Sprouted plants, % of control (rice [3]; 20 kg./ha.): 193 % of control; Main root (rice [3]; 25 kg./ha.): 6.77 cm.; Main root, % of control (rice [3]; 25 kg./ha.): 218 % of control; Secondary roots (rice [3]; 25 kg./ha.): 4.66 No.; Secondary roots, % of control (rice [3]; 25 kg./ha.): 210 % of control; Shoot (rice [3]; 25 kg./ha.): 16.77 cm.; Shoot, % of control (rice [3]; 25 kg./ha.): 283 % of control; Sprouted plants (rice [3]; 25 kg./ha.): 85.0%; Sprouted plants, % of control (rice [3]; 25 kg./ha.): 212 % of control; Main root (rice [3]; 30 kg./ha.): 8.84 cm.; Main root, % of control (rice [3]; 30 kg./ha.): 285 % of control; Secondary roots (rice [3]; 30 kg./ha.): 4.90 No.; Secondary roots, % of control (rice [3]; 30 kg./ha.): 220 % of control; Shoot (rice [3]; 30 kg./ha.): 14.59 cm.; Shoot, % of control (rice [3]; 30 kg./ha.): 246 % of control; Sprouted plants (rice [3]; 30 kg./ha.): 87.5%; Sprouted plants, % of control (rice [3]; 30 kg./ha.): 219 % of control; LD50 [4]: 8000 mg/kg
